Laboratory results from ChEMBL document CHEMBL1129127, “Potent and selective PKC inhibitory 5-membered ring analogs of balanol with replacement of the carboxamide moiety” (Bioorg Med Chem Lett, 1996).

Experiments:
[1] = species on record: Homo sapiens; assay: Inhibition of cellular activity by neutrophil assay; type: functional
[2] = target: Protein kinase C delta type (Homo sapiens, UniProt Q05655); assay: Inhibition of protein kinase C delta
[3] = Inhibition of protein kinase A.
[4] = target: Protein kinase C gamma type (Homo sapiens, UniProt P05129); assay: Inhibition of protein kinase C gamma
[5] = target: T1, Protein kinase C beta type (Homo sapiens, UniProt P05771); assay: Inhibition of protein kinase C beta II
[6] = target: T1, Protein kinase C beta type; assay: Inhibition of protein kinase C beta I
[7] = target: Protein kinase C alpha type (Homo sapiens, UniProt P17252); assay: Inhibition of protein kinase C alpha
[8] = target: T2, Protein kinase C epsilon type (Homo sapiens, UniProt Q02156); assay: Inhibition of protein kinase C epsilon
T2 sequence (Q02156 whole entry): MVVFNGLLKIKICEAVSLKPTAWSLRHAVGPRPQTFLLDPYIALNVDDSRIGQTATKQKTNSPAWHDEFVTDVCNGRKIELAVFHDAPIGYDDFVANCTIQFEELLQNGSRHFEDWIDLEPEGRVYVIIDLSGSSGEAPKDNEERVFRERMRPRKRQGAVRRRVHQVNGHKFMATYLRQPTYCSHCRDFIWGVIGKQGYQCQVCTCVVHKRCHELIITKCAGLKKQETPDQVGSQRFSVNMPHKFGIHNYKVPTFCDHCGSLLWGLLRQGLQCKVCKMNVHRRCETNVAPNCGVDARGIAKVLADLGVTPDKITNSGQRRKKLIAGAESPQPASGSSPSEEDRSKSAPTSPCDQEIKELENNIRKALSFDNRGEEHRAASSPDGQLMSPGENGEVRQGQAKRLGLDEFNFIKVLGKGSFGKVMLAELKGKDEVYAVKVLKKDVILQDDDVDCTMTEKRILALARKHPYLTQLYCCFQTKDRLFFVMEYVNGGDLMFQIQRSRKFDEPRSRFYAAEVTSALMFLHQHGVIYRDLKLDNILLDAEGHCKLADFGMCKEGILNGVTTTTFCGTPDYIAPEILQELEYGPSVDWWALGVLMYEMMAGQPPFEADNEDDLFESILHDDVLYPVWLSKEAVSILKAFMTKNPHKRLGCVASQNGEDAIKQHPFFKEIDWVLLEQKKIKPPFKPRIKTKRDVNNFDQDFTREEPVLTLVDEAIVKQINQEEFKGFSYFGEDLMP

[9] = target: Protein kinase C eta type (Homo sapiens, UniProt P24723); assay: Inhibition of protein kinase C eta
Protein kinase C eta type, sequence (P24723 whole entry): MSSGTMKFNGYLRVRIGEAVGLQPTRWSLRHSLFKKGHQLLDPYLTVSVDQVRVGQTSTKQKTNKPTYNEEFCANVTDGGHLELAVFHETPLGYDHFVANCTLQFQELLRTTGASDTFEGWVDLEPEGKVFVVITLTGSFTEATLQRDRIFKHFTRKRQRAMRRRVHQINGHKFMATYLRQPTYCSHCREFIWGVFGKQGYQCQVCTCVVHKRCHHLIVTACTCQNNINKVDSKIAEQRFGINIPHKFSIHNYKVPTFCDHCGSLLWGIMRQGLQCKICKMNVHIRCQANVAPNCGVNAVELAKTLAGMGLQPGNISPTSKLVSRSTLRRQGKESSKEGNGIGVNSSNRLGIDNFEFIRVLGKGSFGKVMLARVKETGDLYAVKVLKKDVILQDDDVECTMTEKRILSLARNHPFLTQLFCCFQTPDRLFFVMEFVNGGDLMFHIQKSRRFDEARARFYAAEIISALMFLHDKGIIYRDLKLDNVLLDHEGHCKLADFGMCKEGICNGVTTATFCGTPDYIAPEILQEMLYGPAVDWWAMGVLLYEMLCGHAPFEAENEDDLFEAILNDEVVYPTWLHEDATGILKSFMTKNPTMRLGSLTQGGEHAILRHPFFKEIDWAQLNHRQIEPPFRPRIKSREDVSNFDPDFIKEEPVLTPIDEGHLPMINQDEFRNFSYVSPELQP

T1 sequence (P05771 whole entry): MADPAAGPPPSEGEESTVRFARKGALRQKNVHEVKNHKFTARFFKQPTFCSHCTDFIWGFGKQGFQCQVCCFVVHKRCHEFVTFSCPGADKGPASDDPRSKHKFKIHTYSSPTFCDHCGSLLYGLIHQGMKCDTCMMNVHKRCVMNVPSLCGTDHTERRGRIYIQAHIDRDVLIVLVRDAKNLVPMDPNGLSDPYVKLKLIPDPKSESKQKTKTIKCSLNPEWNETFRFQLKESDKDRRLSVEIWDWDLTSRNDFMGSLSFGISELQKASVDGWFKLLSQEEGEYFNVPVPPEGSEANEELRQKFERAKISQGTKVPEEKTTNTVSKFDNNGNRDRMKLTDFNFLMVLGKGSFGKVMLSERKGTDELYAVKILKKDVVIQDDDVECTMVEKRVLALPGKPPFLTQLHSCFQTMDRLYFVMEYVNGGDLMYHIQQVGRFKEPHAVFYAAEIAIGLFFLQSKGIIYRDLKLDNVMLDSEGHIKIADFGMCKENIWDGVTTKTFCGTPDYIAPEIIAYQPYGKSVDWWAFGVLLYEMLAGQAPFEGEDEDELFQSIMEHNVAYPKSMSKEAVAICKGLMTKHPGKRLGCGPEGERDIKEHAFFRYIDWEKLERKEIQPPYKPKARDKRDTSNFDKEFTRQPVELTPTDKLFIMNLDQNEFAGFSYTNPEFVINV
Protein kinase C delta type, sequence (Q05655 whole entry): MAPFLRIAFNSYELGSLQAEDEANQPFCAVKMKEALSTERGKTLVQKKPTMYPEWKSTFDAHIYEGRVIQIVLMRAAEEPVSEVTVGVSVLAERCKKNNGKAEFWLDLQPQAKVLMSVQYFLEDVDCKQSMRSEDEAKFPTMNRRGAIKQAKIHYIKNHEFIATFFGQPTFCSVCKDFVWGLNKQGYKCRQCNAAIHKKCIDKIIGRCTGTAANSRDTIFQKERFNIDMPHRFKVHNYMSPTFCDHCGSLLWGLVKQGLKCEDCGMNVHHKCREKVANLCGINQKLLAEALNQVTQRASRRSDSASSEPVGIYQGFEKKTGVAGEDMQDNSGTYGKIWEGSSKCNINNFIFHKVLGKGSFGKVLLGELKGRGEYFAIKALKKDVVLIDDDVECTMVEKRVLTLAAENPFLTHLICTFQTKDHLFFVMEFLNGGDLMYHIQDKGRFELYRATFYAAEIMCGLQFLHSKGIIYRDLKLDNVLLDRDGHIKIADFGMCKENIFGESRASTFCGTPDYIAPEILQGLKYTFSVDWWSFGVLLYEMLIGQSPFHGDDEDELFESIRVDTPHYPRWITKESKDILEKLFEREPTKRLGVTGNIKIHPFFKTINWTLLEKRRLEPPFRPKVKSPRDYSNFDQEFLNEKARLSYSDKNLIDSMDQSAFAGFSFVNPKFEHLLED

Row | SMILES | IC50 ([1]; Homo sapiens) [µM] | IC50 [2] [µM] | IC50 [3] [µM] | IC50 [4] [µM] | IC50 [9] [µM] | further results
1 | O=C(NC1CNCC1OC(=O)c1cc(O)c(C(=O)c2c(O)cccc2C(=O)O)c(O)c1)c1ccc(O)cc1 (stereo not drawn) | > 10 | 0.005 | 0.07 | 0.012 | 0.004 | IC50 [5]: 0.033 µM; IC50 [6]: 0.01 µM; IC50 [7]: 0.022 µM; IC50 [8]: 0.01 µM
2 | O=C(OC1CNCC1Cc1ccc(O)cc1)c1cc(O)c(C(=O)c2c(O)cccc2C(=O)O)c(O)c1 (stereo not drawn) | > 10 | 0.005 | 0.32 | 0.04 | 0.02 | IC50 [8]: 1.8 µM
3 | COC(=O)c1cccc(O)c1C(=O)c1c(O)cc(C(=O)OC2CNCC2Cc2ccc(O)cc2)cc1O (stereo not drawn) | – | – | – | – | 0.05 | –
4 | O=C(NC1CCCC1OC(=O)c1cc(O)c(C(=O)c2c(O)cccc2C(=O)O)c(O)c1)c1ccc(O)cc1 (stereo not drawn) | > 10 | 0.001 | – | – | 0.001 | –
5 | COC(=O)c1cccc(O)c1C(=O)c1c(O)cc(C(=O)OC2CCCC2Cc2ccc(O)cc2)cc1O (stereo not drawn) | – | – | > 50 | – | – | –
6 | O=C(OC1CCCC1Oc1ccc(O)cc1)c1cc(O)c(C(=O)c2c(O)cccc2C(=O)O)c(O)c1 (stereo not drawn) | – | – | 50 | – | – | –
7 | O=C(NC1CNCCCC1OC(=O)c1cc(O)c(C(=O)c2c(O)cccc2C(=O)O)c(O)c1)c1ccc(O)cc1 (racemic) | > 10 | – | 0.06 | – | – | –
8 | O=C(NC1CNCCCC1OC(=O)c1cc(O)c(C(=O)c2c(O)cccc2C(=O)O)c(O)c1)c1ccc(O)cc1 (single isomer, unassigned; (-)) | – | 0.016 | 0.04 | 0.01 | 0.003 | IC50 [5]: 0.01 µM; IC50 [6]: 0.01 µM; IC50 [7]: 0.03 µM
9 | O=C(OC1CCCC1Cc1ccc(O)cc1)c1cc(O)c(C(=O)c2c(O)cccc2C(=O)O)c(O)c1 (stereo in doubt; anti) | – | – | > 50 | – | – | IC50 [1]: 3.1 µM
10 | O=C(OC1CCCC1Cc1ccc(O)cc1)c1cc(O)c(C(=O)c2c(O)cccc2C(=O)O)c(O)c1 (stereo in doubt; syn) | – | – | – | – | – | IC50 [1]: 10 µM
